In ChEMBL document CHEMBL2074450 (J Pharmacol Exp Ther, 2002):

Biological target: ATP-dependent translocase ABCB1 (Homo sapiens, UniProt P08183)
Assay: TP_TRANSPORTER: transepithelial transport (basal to apical) in HCT-8 cells
Assay type: functional, cell-based

ATP-dependent translocase ABCB1, sequence (P08183 whole entry): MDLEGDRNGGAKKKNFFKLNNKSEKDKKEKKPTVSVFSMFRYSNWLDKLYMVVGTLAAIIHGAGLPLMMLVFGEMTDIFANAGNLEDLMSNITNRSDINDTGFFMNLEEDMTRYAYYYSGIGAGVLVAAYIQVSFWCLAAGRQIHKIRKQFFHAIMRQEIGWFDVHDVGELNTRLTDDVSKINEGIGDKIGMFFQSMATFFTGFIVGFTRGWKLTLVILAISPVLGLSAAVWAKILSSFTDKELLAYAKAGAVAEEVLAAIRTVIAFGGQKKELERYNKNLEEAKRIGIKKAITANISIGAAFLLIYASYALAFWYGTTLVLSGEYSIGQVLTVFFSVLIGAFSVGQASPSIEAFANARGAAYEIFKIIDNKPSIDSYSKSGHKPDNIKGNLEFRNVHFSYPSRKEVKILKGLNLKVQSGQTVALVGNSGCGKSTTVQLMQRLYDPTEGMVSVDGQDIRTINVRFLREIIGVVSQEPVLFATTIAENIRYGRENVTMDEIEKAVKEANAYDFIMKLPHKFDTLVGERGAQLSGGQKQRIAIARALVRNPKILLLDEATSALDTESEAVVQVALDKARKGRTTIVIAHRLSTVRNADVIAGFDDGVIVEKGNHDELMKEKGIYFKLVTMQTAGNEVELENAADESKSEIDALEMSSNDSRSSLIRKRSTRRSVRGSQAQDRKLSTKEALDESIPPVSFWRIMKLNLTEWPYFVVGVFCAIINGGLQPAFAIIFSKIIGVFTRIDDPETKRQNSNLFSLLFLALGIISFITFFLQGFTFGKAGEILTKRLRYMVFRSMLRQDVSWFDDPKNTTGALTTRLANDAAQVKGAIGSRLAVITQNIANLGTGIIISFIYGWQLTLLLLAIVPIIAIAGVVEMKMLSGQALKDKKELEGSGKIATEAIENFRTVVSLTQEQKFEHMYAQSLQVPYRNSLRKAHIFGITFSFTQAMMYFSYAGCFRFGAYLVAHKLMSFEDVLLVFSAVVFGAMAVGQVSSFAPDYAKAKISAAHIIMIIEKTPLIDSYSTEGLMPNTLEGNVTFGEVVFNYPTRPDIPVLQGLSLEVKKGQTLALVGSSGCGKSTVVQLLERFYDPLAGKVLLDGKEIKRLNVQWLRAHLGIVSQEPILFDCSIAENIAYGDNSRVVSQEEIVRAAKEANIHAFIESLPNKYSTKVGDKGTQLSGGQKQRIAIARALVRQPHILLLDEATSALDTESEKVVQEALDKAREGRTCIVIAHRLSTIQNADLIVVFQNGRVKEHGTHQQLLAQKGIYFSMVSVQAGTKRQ

Activity: is not a substrate [-]
Compound: CO[C@H]1C[C@@H]2CC[C@@H](C)[C@@](O)(O2)C(=O)C(=O)N2CCCC[C@H]2C(=O)O[C@H]([C@H](C)C[C@@H]2CC[C@@H](O)[C@H](OC)C2)CC(=O)[C@H](C)/C=C(\C)[C@@H](O)[C@@H](OC)C(=O)[C@H](C)C[C@H](C)/C=C/C=C/C=C/1C [SIROLIMUS]
